Laboratory results taken from the supplement of paper PMC10331698.
± gives the standard deviation of the averaged measurements.

Tests used:
Assay in all cases: level (log10 ratio to DMSO vehicle control); higher = higher biomarker level / cell amount than vehicle control
Conditions in all cases: in DMSO
[1] = compound: COC(=O)CCC(F)(F)C(F)(F)C(F)(F)C(F)(F)F [Methyl 2H,2H,3H,3H-perfluoroheptanoate]
Procedure: (§1)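 BioMAP Diversity Plus panel of 12 human primary cell co-culture systems (3C, 4H, LPS, SAg, BT, BF4T, BE3C, CASM3C, HDF3CGF, KF3CT, MyoF, Mphg). Compounds were added 1 h before stimulation and left for 24 h (MyoF 48 h; BT 72 h for soluble read-outs or 6 d for IgG). Biomarkers were read by ELISA, cytotoxicity by SRB, PBMC viability and proliferation by Alamar Blue. Each well value was divided by the mean of 8 DMSO control wells on the same plate and log10 transformed; duplicate blinded samples were tested at 4 concentrations.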

[2] = compound: NCC(F)(F)C(F)(F)C(F)(F)C(F)(F)C(F)(F)C(F)(F)C(F)(F)F [1H,1H-Perfluorooctylamine]
Procedure: as §1

[3] = compound: FC(F)(F)C(F)(F)C(F)(F)C(F)(F)C(F)(F)CCI [1-Iodo-1H,1H,2H,2H-perfluoroheptane]
Procedure: as §1

[4] = compound: O=C(O)C(F)(F)OC(F)(F)C(F)(F)OC(F)(F)F [Perfluoro-3,6-dioxaheptanoic acid]
Procedure: as §1

Heptafluorobutyramide = compound: NC(=O)C(F)(F)C(F)(F)C(F)(F)F [Heptafluorobutyramide]
Procedure: as §1

Perfluoro-1-iodohexane = compound: FC(F)(F)C(F)(F)C(F)(F)C(F)(F)C(F)(F)C(F)(F)I [Perfluoro-1-iodohexane]
Procedure: as §1

Row | Test System | level (log10) ([1]; 6700 nM) | level (log10) ([1]; 20000 nM) | level (log10) ([1]; 60000 nM) | level (log10) ([2]; 6700 nM) | level (log10) ([2]; 20000 nM) | level (log10) ([2]; 60000 nM) | level (log10) ([3]; 6700 nM) | level (log10) ([3]; 20000 nM) | level (log10) ([3]; 60000 nM) | level (log10) ([4]; 6700 nM) | level (log10) ([4]; 20000 nM) | level (log10) ([4]; 60000 nM) | level (log10) (Heptafluorobutyramide; 6700 nM) | level (log10) (Heptafluorobutyramide; 20000 nM) | level (log10) (Heptafluorobutyramide; 60000 nM) | level (log10) (Perfluoro-1-iodohexane; 6700 nM) | level (log10) (Perfluoro-1-iodohexane; 20000 nM) | level (log10) (Perfluoro-1-iodohexane; 60000 nM)
1 | LPS:CD106/VCAM-1 | -0.0265 ± 0.011 | -0.0265 ± 0.00071 | -0.0085 ± 0.021 | -0.006 ± 0.023 | -0.015 ± 0.013 | -0.0135 ± 0.0092 | -0.0045 ± 0.00071 | -0.008 ± 0.0014 | -0.0165 ± 0.0064 | -0.0215 ± 0.023 | -0.007 ± 0.0085 | -0.0105 ± 0.005 | 0.0005 ± 0.005 | -0.0005 ± 0.012 | -0.0145 ± 0.029 | -0.031 ± 0.0057 | -0.0145 ± 0.018 | -0.029 ± 0.0028
2 | LPS:CD141/Thrombomodulin | -0.0375 ± 0.037 | -0.0325 ± 0.0092 | -0.0255 ± 0.0078 | -0.0055 ± 0.025 | -0.0355 ± 0.021 | -0.026 ± 0.034 | -0.016 ± 0.0085 | -0.014 ± 0.0099 | -0.032 ± 0.0014 | -0.033 ± 0.081 | -0.018 ± 0.067 | -0.0165 ± 0.012 | -0.018 ± 0.05 | -0.0175 ± 0.064 | -0.0175 ± 0.035 | -0.0175 ± 0.0035 | -0.0095 ± 0.025 | -0.0105 ± 0.0092
3 | LPS:CD142/Tissue Factor | 0.0015 ± 0.067 | 0.0175 ± 0.054 | -0.019 ± 0.0085 | 0.02 ± 0.095 | 0.005 ± 0.054 | -0.0475 ± 0.073 | 0.0045 ± 0.018 | 0.0285 ± 0.016 | 0.038 ± 0.0085 | -0.0335 ± 0.011 | 0.0145 ± 0.023 | 0.009 ± 0.0028 | -0.0035 ± 0.028 | 0.002 ± 0.061 | -0.0245 ± 0.047 | -0.018 ± 0.038 | 0.0045 ± 0.0021 | 0.0045 ± 0.011
4 | LPS:CXCL8/IL-8 | -0.0075 ± 0.023 | -0.016 ± 0.0071 | 0.022 ± 0.016 | -0.0315 ± 0.011 | -0.0265 ± 0.0035 | -0.0105 ± 0.033 | 0.0065 ± 0.03 | 0.0135 ± 0.005 | 0.0145 ± 0.0021 | 0.007 ± 0.028 | 0.0265 ± 0.0064 | 0.0505 ± 0.0078 | -0.01 ± 0.038 | -0.0025 ± 0.032 | 0.0115 ± 0.0078 | -0.0045 ± 0.015 | 0.005 | 0.015 ± 0.017
5 | LPS:IL-1alpha | -0.0265 ± 0.015 | -0.0185 ± 0.018 | 0.0235 ± 0.016 | -0.04 ± 0.038 | 0.0105 ± 0.022 | -0.0025 ± 0.03 | 0.023 ± 0.033 | 0.0055 ± 0.022 | 0.0205 ± 0.0064 | -0.0605 ± 0.0035 | -0.0075 ± 0.0064 | -0.0055 ± 0.036 | -0.014 ± 0.018 | -0.0125 ± 0.0035 | 0.013 ± 0.054 | -0.048 ± 0.035 | -0.042 ± 0.021 | -0.004 ± 0.0014
6 | LPS:M-CSF | -0.0005 ± 0.0035 | 0.002 ± 0.011 | 0.0105 ± 0.043 | 0.008 ± 0.024 | -0.015 ± 0.03 | -0.0235 ± 0.025 | -0.0145 ± 0.0092 | -0.0185 ± 0.0035 | -0.031 ± 0.017 | -0.0505 ± 0.056 | -0.014 ± 0.055 | -0.0185 ± 0.057 | -0.003 ± 0.016 | -0.006 ± 0.0014 | -0.006 ± 0.0057 | 0.0135 ± 0.019 | -0.0055 ± 0.05 | -0.003 ± 0.025
7 | LPS:SRB | 0.006 ± 0.023 | 0.001 ± 0.011 | -0.0045 ± 0.011 | -0.0005 ± 0.0035 | -0.0025 ± 0.0092 | 0.006 ± 0.037 | -0.006 ± 0.0014 | -0.009 ± 0.014 | -0.005 ± 0.0071 | -0.011 ± 0.0028 | -0.0105 ± 0.00071 | -0.0095 ± 0.00071 | -0.0115 ± 0.015 | -0.009 ± 0.0071 | -0.002 ± 0.0071 | -0.0025 ± 0.0064 | -0.0055 ± 0.0064 | -0.0085 ± 0.00071
8 | LPS:sPGE2 | 0.014 ± 0.033 | 0.0395 ± 0.0078 | -0.0125 ± 0.04 | -0.076 ± 0.025 | -0.059 ± 0.031 | -0.036 ± 0.013 | -0.01 ± 0.042 | -0.0395 ± 0.023 | -0.018 ± 0.0085 | -0.0065 ± 0.047 | -0.0395 ± 0.018 | -0.006 ± 0.021 | -0.0305 ± 0.057 | 0.011 ± 0.0042 | -0.004 ± 0.0071 | 0.0235 ± 0.0092 | 0.0015 ± 0.00071 | -0.038 ± 0.018
9 | LPS:sTNF-alpha | 0.0245 ± 0.005 | -0.007 ± 0.011 | -0.025 ± 0.033 | 0.018 ± 0.011 | 0.0125 ± 0.029 | -0.0015 ± 0.028 | 0.003 ± 0.011 | -0.0065 ± 0.04 | -0.0135 ± 0.046 | -0.012 ± 0.027 | -0.0265 ± 0.023 | -0.0205 ± 0.005 | 0.012 ± 0.017 | 0.013 ± 0.011 | 0.001 ± 0.023 | 0.0005 ± 0.022 | -0.008 ± 0.016 | 0.0075 ± 0.029
10 | SAg:CCL2/MCP-1 | 0 ± 0.014 | -0.027 ± 0.0014 | -0.0015 ± 0.0035 | -0.0255 ± 0.012 | -0.0145 ± 0.0064 | -0.0035 ± 0.025 | -0.005 ± 0.0099 | -0.0175 ± 0.0035 | -0.006 ± 0.038 | 0.0125 ± 0.032 | 0.002 ± 0.035 | -0.0025 ± 0.033 | -0.0125 ± 0.015 | -0.011 ± 0.0099 | 0.0085 ± 0.037 | 0.006 ± 0.018 | -0.0045 ± 0.021 | 0.005 ± 0.05
11 | SAg:CD38 | -0.018 ± 0.017 | -0.0015 ± 0.018 | -0.009 ± 0.0028 | 0.0005 ± 0.012 | -0.0155 ± 0.00071 | 0.0065 ± 0.005 | -0.012 ± 0.0042 | 0.007 ± 0.0042 | -0.0125 ± 0.016 | -0.0055 ± 0.052 | -0.003 ± 0.047 | -0.014 ± 0.024 | -0.0315 ± 0.029 | -0.03 ± 0.016 | -0.021 ± 0.021 | -0.059 ± 0.15 | -0.01 ± 0.02 | 0.0005 ± 0.076
12 | SAg:CD40 | -0.042 ± 0.04 | -0.0415 ± 0.04 | -0.053 ± 0.065 | 0.001 ± 0.02 | -0.0115 ± 0.011 | -0.002 ± 0.011 | 0.0015 ± 0.0078 | -0.0095 ± 0.0021 | -0.011 ± 0.011 | -0.0425 ± 0.088 | -0.0475 ± 0.022 | -0.063 ± 0.093 | -0.031 ± 0.042 | -0.039 ± 0.042 | -0.034 ± 0.068 | -0.019 ± 0.013 | -0.0195 ± 0.018 | 0.012 ± 0.061
13 | SAg:CD62E/E-Selectin | -0.014 ± 0.014 | -0.03 ± 0.0071 | 0.007 ± 0.0057 | -0.0135 ± 0.028 | -0.0055 ± 0.039 | 0 ± 0.011 | 0.023 ± 0.062 | -0.0295 ± 0.0078 | 0.017 ± 0.0085 | -0.0015 ± 0.0021 | 0.001 ± 0.0042 | 0.021 ± 0.0057 | 0.0035 ± 0.023 | -0.008 ± 0.047 | -0.0065 ± 0.022 | -0.009 ± 0.0014 | 0.0055 ± 0.019 | 0.0095 ± 0.044
14 | SAg:CD69 | -0.0375 ± 0.035 | -0.0225 ± 0.019 | -0.0085 ± 0.05 | -0.0095 ± 0.0092 | 0.0005 ± 0.0035 | 0.006 ± 0.016 | -0.025 ± 0.011 | -0.037 ± 0.0042 | -0.036 ± 0.011 | -0.024 ± 0.0085 | -0.013 ± 0.014 | -0.029 ± 0.0028 | 0.031 ± 0.034 | 0.02 ± 0.016 | 0.0165 ± 0.05 | -0.0155 ± 0.033 | -0.017 ± 0.024 | 0.006 ± 0.0014
15 | SAg:CXCL8/IL-8 | -0.007 ± 0.05 | -0.0085 ± 0.026 | 0.0165 ± 0.033 | 0.058 ± 0.076 | -0.0255 ± 0.011 | 0.0065 ± 0.061 | -0.0585 ± 0.042 | -0.061 ± 0.016 | 0.007 ± 0.042 | 0.0055 ± 0.0035 | 0.034 ± 0.0071 | 0.0735 ± 0.04 | 0.015 ± 0.013 | 0.011 ± 0.017 | 0.0085 ± 0.021 | 0.0365 ± 0.016 | -0.004 ± 0.0071 | 0.002 ± 0.059
16 | SAg:CXCL9/MIG | -0.0195 ± 0.012 | -0.0095 ± 0.0021 | -0.0065 ± 0.018 | -0.0035 ± 0.005 | -0.019 ± 0.0057 | -0.01 ± 0.0014 | -0.005 ± 0.013 | -0.0145 ± 0.0092 | 0.0005 ± 0.012 | 0.006 ± 0.014 | 0.001 ± 0.014 | 0.0055 ± 0.0078 | 0.0075 ± 0.0021 | -0.0025 ± 0.012 | 0.0005 ± 0.013 | -0.0205 ± 0.028 | -0.005 ± 0.014 | 0.0045 ± 0.032
17 | SAg:PBMC Cytotoxicity | 0.033 ± 0.021 | 0.029 ± 0.058 | 0.029 ± 0.057 | 0.032 ± 0.025 | 0.018 ± 0.013 | -0.129 ± 0.27 | -0.016 ± 0.024 | 0.0085 ± 0.018 | -0.033 ± 0.045 | -0.0035 ± 0.029 | 0.002 ± 0.0042 | 0.013 ± 0.0028 | 0.001 ± 0.014 | -0.0125 ± 0.021 | 0.019 ± 0.0099 | -0.025 ± 0.023 | -0.014 ± 0.0014 | -0.024 ± 0.028
